Laboratory results reported in patent US20090270431A1, “Cyclopentenol Nucleoside Compounds Intermediates for their Synthesis and Methods of Treating Viral Infections” (THE UNIVERSITY OF GEORGIA RESEARCH FOUNDATION, priority 2005, published 2009).
Where “and” joins values, the source holds several entries; their conditions need not be identical. Identical values can stand only once. Counter-ions that a name gives are not always drawn. Like-named read-outs stand apart in the source and are kept apart here.

Assays:
Vaccinia = test: microbe, parasite or virus in culture; type: cell-based, vaccinia virus
Cowpox = test: microbe, parasite or virus in culture; type: cell-based, cowpox virus
Flu A (H5N1) = test: microbe, parasite or virus in culture; type: cell-based
HSV-1 = test: CPE assay, HSV-1 in HFF cells; type: cell-based, herpes simplex virus type 1; conditions: Human alphaherpesvirus 1
HSV-2 = test: CPE assay, HSV-2 in HFF cells; type: cell-based, herpes simplex virus type 2; conditions: Human alphaherpesvirus 2
RSV A = test: antiviral assay, RSV A in MA-104; type: cell-based; conditions: human respiratory syncytial virus, MA104, RSV A
HCMV = test: CPE assay, HCMV in HFF cells; type: cell-based, human cytomegalovirus; conditions: Human betaherpesvirus 5
SARS = test: organism not typed; type: cell-based; conditions: Vero 76
Flu A (H1N1) = test: microbe, parasite or virus in culture; type: cell-based
HCV RNA replicon = HCV RNA replicon assay; type: cell-based, hepatitis C virus (HCV); conditions: Hepatitis C virus, Huh7 ET, HCV; HRR (HCV RNA replicon); Huh7 ET; read-out: EC50
Procedure: A number of […] 7-deazaneplanocin compounds were tested in vitro to determine activity against hepatitis C virus (HCV).

VZV = test: CPE assay, VZV in HFF cells; type: cell-based, varicella zoster virus; conditions: Human alphaherpesvirus 3
Flu A (H3N2) = test: microbe, parasite or virus in culture; type: cell-based
PIV = test: antiviral assay, PIV in MA-104; type: cell-based, parainfluenza virus
Hepatitis B Virus = test: in vitro anti-HBV activity, VIR (extracellular virion HBV DNA); type: cell-based; conditions: HBV, VIR, Huh7 ET (Table 3)
Procedure: In the first biological experiment, a number of 7-deazaneplanocin compounds were tested in vitro to determine activity against hepatitis B virus (HBV).

Rhinovirus = test: antiviral assay, Rhinovirus in HeLa Ohio-1; type: cell-based; conditions: Enterovirus, HeLa Ohio1, RV, HO-1
Adeno = test: antiviral assay, Adeno in A-549; type: cell-based; conditions: unidentified adenovirus, A549, Adeno
Flu A = test: organism not typed; type: cell-based
Measles = test: antiviral assay, Measles in CV-1; type: cell-based; conditions: Measles morbillivirus
Yellow Fever = test: organism not typed; type: cell-based; conditions: Vero
Dengue = test: antiviral assay, Dengue in Vero; type: cell-based
Tacaribe = type: cell-based; conditions: Vero 76
RVF = type: cell-based
VEE = type: cell-based
Flu B = type: cell-based; conditions: MDCK

Nc1nccc2c1ncn2[C@@H]1C=C(CO)[C@@H](O)[C@H]1O [Compound 3-DNPA, (−)-1-[(1R,4R,5S)-3-(Hydroxymethyl)-4,5-dihydroxy-2-cyclopenten-1-yl]-4-aminoimidazo[4,5-c]pyridine Hydrochloride]
EC50 (Vaccinia; Orthopoxvirus vaccinia, HFF): 2.9 µM
EC50 (Cowpox; Cowpox virus, HFF): 182 µM
EC50 (Flu A (H5N1); Flu A (H5N1), Visual, MDCK): > 100 µM
EC50 (Flu A (H5N1); Influenza A virus, H5N1, MDCK): > 100 µM
EC50 (HSV-1): > 300 µM
EC50 (HSV-2): 43.5 µM
EC50 (RSV A; NR): 4 µM
EC50 (RSV A; Visual): 100 µM
EC50 (HCMV): 0.36 µM
EC50 (SARS; SARS, Visual): > 100 µM
EC50 (SARS): > 100 µM
EC50 (Flu A (H1N1); Influenza A virus, H1N1, MDCK, NR): > 25 µM
EC50 (Flu A (H1N1); Influenza A virus, H1N1, MDCK, Visual): > 100 µM
EC50 (HCV RNA replicon): 1.44 µM
EC50 (VZV): > 300 µM
EC50 (Flu A (H3N2); Flu A (H3N2), Visual, MDCK): > 100 µM
EC50 (Flu A (H3N2); Influenza A virus, H3N2, MDCK): > 100 µM
EC50 (PIV; MA104, NR): > 100 µM
EC50 (PIV; Visual): > 100 µM
EC50 (Hepatitis B Virus; Hepatitis B virus): 0.59 µM
EC50 (Rhinovirus; NR): 4 µM
EC50 (Rhinovirus; Visual): 32 µM
EC50 (Adeno; NR): 17 µM
EC50 (Adeno; Visual): 24 µM
EC50 (Flu A): > 100 µM
EC50 (Measles; NR): 0.4 µM
EC50 (Measles; Visual): 0.9 µM
EC50 (Yellow Fever): > 100 µM
EC50 (Yellow Fever; YF, Visual): > 100 µM

Nc1nccc2ncn([C@@H]3C=C(CO)[C@@H](O)[C@H]3O)c12 [Compound N7-3-DNPA]
EC50 (Vaccinia; VV, CPE, HFF Cells (Table 3), read-out: EC50): > 300 µM
EC50 (Cowpox; Cowpox, CPE, HFF Cells (Table 3), read-out: EC50): 273 µM
EC50 (Flu A (H5N1); Flu A (H5N1), NR, MDCK, read-out: EC50): 29 µM
EC50 (Flu A (H5N1); Flu A (H5N1), Visual, MDCK, read-out: EC50): 32 µM
EC50 (Dengue; NR): > 100 µM
EC50 (Dengue; Visual): > 100 µM
EC50 (Tacaribe; NR): 85 µM
EC50 (Tacaribe; Visual): 52 µM
EC50 (SARS; SARS, NR (Neutral Red), read-out: EC50): > 100 µM
EC50 (SARS; SARS, Visual, read-out: EC50): > 100 µM
EC50 (Flu A (H1N1); NR, MDCK, read-out: EC50): > 32 µM
EC50 (Flu A (H1N1); Visual, MDCK, read-out: EC50): > 32 µM
EC50 (Flu A (H3N2); Flu A (H3N2), NR, MDCK, read-out: EC50): > 32 µM
EC50 (Flu A (H3N2); Flu A (H3N2), Visual, MDCK, read-out: EC50): > 32 µM
EC50 (RVF): > 100 µM
EC50 (Hepatitis B Virus): > 10 µM
EC50 (VEE): 84.6 µM and > 100 µM
EC50 (Flu B; NR): 34 µM
EC50 (Flu B; Visual): 8 µM
EC50 (Yellow Fever; YF, NR, read-out: EC50): > 100 µM
EC50 (Yellow Fever; YF, Visual, read-out: EC50): > 100 µM
